The source made the active and inactive calls. No cut-off for these calls is given here.

Test [1] concerns Salmonella typhimurium. In words: Antimicrobial activity against Salmonella typhimurium WDCM 00031 after 24 to 48 hrs by broth microdilution assay. The test is classed as functional, Salmonella enterica subsp. enterica serovar Typhimurium. The note with it: Salmonella enterica.
For the next test, the system named is Candida albicans. In words: Antifungal activity against Candida albicans ATCC 90029 after 24 to 48 hrs by broth microdilution assay. In kind it is functional.
Test [2] deals with Klebsiella pneumoniae. In words: Antimicrobial activity against Klebsiella pneumoniae clinical isolate after 24 to 48 hrs by broth microdilution assay. The test is classed as functional.
Test [3] has as its system Enterococcus faecalis. In words: Bactericidal activity against Enterococcus faecalis ATCC 29212 preincubated for 24 to 48 hrs followed by replating on MHA plates and measured after 18 hrs by broth microdilution assay. In kind it is functional.
The subject of test [4] is Acinetobacter baumannii. The test is described as follows: Bactericidal activity against Acinetobacter baumannii clinical isolate preincubated for 24 to 48 hrs followed by replating on MHA plates and measured after 18 hrs by broth microdilution assay. The test is classed as functional.
Test [5] deals with Enterococcus faecalis. The test is described as follows: Antimicrobial activity against Enterococcus faecalis ATCC 29212 after 24 to 48 hrs by broth microdilution assay. In kind it is functional.
The test system of test [6] is Staphylococcus aureus. In words: Antimicrobial activity against methicillin-resistant Staphylococcus aureus clinical isolate after 24 to 48 hrs by broth microdilution assay. In kind it is functional.
Test [7] deals with Klebsiella pneumoniae. The test is described as follows: Bactericidal activity against Klebsiella pneumoniae ATCC 13883 preincubated for 24 to 48 hrs followed by replating on MHA plates and measured after 18 hrs by broth microdilution assay. In kind it is functional.
The subject of another test is Aspergillus niger. The test is described as follows: Antifungal activity against Aspergillus niger after 24 to 48 hrs by broth microdilution assay. In kind it is functional.
The subject of test [8] is Acinetobacter baumannii. The test is described as follows: Bactericidal activity against Acinetobacter baumannii ATCC 19606 preincubated for 24 to 48 hrs followed by replating on MHA plates and measured after 18 hrs by broth microdilution assay. The test is classed as functional. The note with it: ATCC 19606 = CIP 70.34 = JCM 6841.
The subject of test [9] is Acinetobacter baumannii. In words: Antimicrobial activity against Acinetobacter baumannii clinical isolate after 24 to 48 hrs by broth microdilution assay. In kind it is functional.
Test [10] has as its system Klebsiella pneumoniae. In words: Bactericidal activity against Klebsiella pneumoniae clinical isolate preincubated for 24 to 48 hrs followed by replating on MHA plates and measured after 18 hrs by broth microdilution assay. In kind it is functional.
The test system of test [11] is Listeria monocytogenes. The test is described as follows: Antimicrobial activity against Listeria monocytogenes ATCC 19111 (1/2a) after 24 to 48 hrs by broth microdilution assay. The test is classed as functional.
The test system of test [12] is Staphylococcus aureus. The test is described as follows: Bactericidal activity against Staphylococcus aureus ATCC 29213 preincubated for 24 to 48 hrs followed by replating on MHA plates and measured after 18 hrs by broth microdilution assay. The test is classed as functional.
Test [13] deals with Klebsiella pneumoniae. In words: Antimicrobial activity against Klebsiella pneumoniae ATCC 13883 after 24 to 48 hrs by broth microdilution assay. In kind it is functional.
Test [14] relates to Acinetobacter baumannii. The test is described as follows: Antimicrobial activity against Acinetobacter baumannii ATCC 19606 after 24 to 48 hrs by broth microdilution assay. The test is classed as functional. The note with it: ATCC 19606 = CIP 70.34 = JCM 6841.
In test [15] the test system is Escherichia coli. In words: Bactericidal activity against Escherichia coli clinical isolate preincubated for 24 to 48 hrs followed by replating on MHA plates and measured after 18 hrs by broth microdilution assay. In kind it is functional.
Test [16] relates to Salmonella typhimurium. In words: Bactericidal activity against Salmonella typhimurium WDCM 00031 preincubated for 24 to 48 hrs followed by replating on MHA plates and measured after 18 hrs by broth microdilution assay. In kind it is functional, Salmonella enterica subsp. enterica serovar Typhimurium. To be noted: Salmonella enterica.
Test [17] deals with Pseudomonas aeruginosa. In words: Bactericidal activity against Pseudomonas aeruginosa ATCC 27853 preincubated for 24 to 48 hrs followed by replating on MHA plates and measured after 18 hrs by broth microdilution assay. In kind it is functional.
The test system of test [18] is Streptococcus pyogenes. The test is described as follows: Antimicrobial activity against Streptococcus pyogenes ATCC 19615 after 24 to 48 hrs by broth microdilution assay. In kind it is functional.
Test [19] deals with Escherichia coli. In words: Antimicrobial activity against Escherichia coli ATCC 25922 after 24 to 48 hrs by broth microdilution assay. In kind it is functional.
Test [20] relates to Listeria monocytogenes. In words: Bactericidal activity against Listeria monocytogenes ATCC 19111 (1/2a) preincubated for 24 to 48 hrs followed by replating on MHA plates and measured after 18 hrs by broth microdilution assay. In kind it is functional.
Test [21] relates to Escherichia coli. In words: Antimicrobial activity against Escherichia coli clinical isolate after 24 to 48 hrs by broth microdilution assay. The test is classed as functional.
Test [22] deals with Streptococcus pyogenes. The test is described as follows: Bactericidal activity against Streptococcus pyogenes ATCC 19615 preincubated for 24 to 48 hrs followed by replating on MHA plates and measured after 18 hrs by broth microdilution assay. In kind it is functional.
In test [23] the test system is Escherichia coli. In words: Bactericidal activity against Escherichia coli ATCC 25922 preincubated for 24 to 48 hrs followed by replating on MHA plates and measured after 18 hrs by broth microdilution assay. The test is classed as functional.
Test [24] deals with Staphylococcus aureus. In words: Antimicrobial activity against Staphylococcus aureus ATCC 29213 after 24 to 48 hrs by broth microdilution assay. The test is classed as functional.
Test [25] relates to Pseudomonas aeruginosa. In words: Antimicrobial activity against Pseudomonas aeruginosa ATCC 27853 after 24 to 48 hrs by broth microdilution assay. The test is classed as functional.
The subject of test [26] is Staphylococcus aureus. In words: Bactericidal activity against methicillin-resistant Staphylococcus aureus clinical isolate preincubated for 24 to 48 hrs followed by replating on MHA plates and measured after 18 hrs by broth microdilution assay. In kind it is functional.
The next test has as its system Penicillium citrinum. In words: Antifungal activity against Penicillium citrinum after 24 to 48 hrs by broth microdilution assay. In kind it is functional.
The subject of test [27] is Staphylococcus aureus. The test is described as follows: Induction of morphological changes in Staphylococcus aureus ATCC 29213 assessed as cell wall damage at MIC after 1 hr by atomic force microscopic analysis. In kind it is functional, organism-based.
A further test concerns HEK293. In words: Cytotoxicity against HEK293 cells assessed as reduction in cell viability after 48 hrs by MTS assay. To be noted: Homo sapiens, HEK293, 48 h. In kind it is cell-based.
A further test concerns HeLa. The test is described as follows: Cytotoxicity against human HeLa cells assessed as reduction in cell viability after 48 hrs by MTS assay. In kind it is cell-based.

As to `CCCCCCCCCC[N+]12CCC(CC1)C(O)C2.[Br-]` (centres undefined), the minimum inhibitory concentration (MIC) against Salmonella typhimurium [1] was 1000 µg/mL; against Klebsiella pneumoniae [2], 1000 µg/mL; against Enterococcus faecalis [5], 250 µg/mL; with Staphylococcus aureus [6], 500 µg/mL; against Acinetobacter baumannii [9], 500 µg/mL; against Listeria monocytogenes [11], 250 µg/mL. Besides, the MIC against Klebsiella pneumoniae [13] was found to be 1000 µg/mL; in the test with Acinetobacter baumannii [14], 1000 µg/mL; in the test with Streptococcus pyogenes [18], 15.6 µg/mL; against Escherichia coli [19], 250 µg/mL; in the test on Escherichia coli [21] it was 500 µg/mL; against Staphylococcus aureus [24], 125 µg/mL. For the same compound, the MIC in the test with Pseudomonas aeruginosa [25] was determined as 2000 µg/mL. The results for the MIC50 against Candida albicans, in the test on Aspergillus niger and in the test on Penicillium citrinum were 31.2 µg/mL, 125 µg/mL and 250 µg/mL, respectively. In addition, the MIC90 with Candida albicans came to 62.5 µg/mL; in the test with Aspergillus niger, 250 µg/mL; against Penicillium citrinum, 500 µg/mL. For the same compound, the minimal bactericidal concentration (MBC) against Enterococcus faecalis [3] was determined as 250 µg/mL; in the test on Acinetobacter baumannii [4], 1000 µg/mL; with Klebsiella pneumoniae [7], 1000 µg/mL; against Acinetobacter baumannii [8], 1000 µg/mL; against Klebsiella pneumoniae [10], 1000 µg/mL; with Staphylococcus aureus [12], 125 µg/mL. Further, the minimal bactericidal concentration (MBC) was 500 µg/mL with Escherichia coli [15]; 1000 µg/mL in the test with Salmonella typhimurium [16]; 2000 µg/mL against Pseudomonas aeruginosa [17]; 250 µg/mL in the test with Listeria monocytogenes [20]; 15.6 µg/mL against Streptococcus pyogenes [22]; 250 µg/mL with Escherichia coli [23]. The compound also displayed a minimal bactericidal concentration (MBC) against Staphylococcus aureus [26] of 500 µg/mL.

For the compound `CCCCCCCCCCCC[N+](C)(C)Cc1ccccc1.[Br-]`, the MBC against Staphylococcus aureus [12] worked out at 1.5 µg/mL; against Escherichia coli [23] it was 3.9 µg/mL. The MIC amounted to 3.9 µg/mL with Escherichia coli [19] and 1.5 µg/mL with Staphylococcus aureus [24]. Moreover, the outcome in the test with Staphylococcus aureus [27] was Active. In addition, the 50% inhibitory concentration (IC50) with HEK293 stood at 1 µg/mL; with HeLa, 3.98 µg/mL.
